In patent publication US20240238314A1, “TREATMENT OF ESSENTIAL TREMOR” (Sage Therapeutics, Inc., priority 2021, published 2024):

System: individuals with essential tremor
Assay: Phase 2 placebo-controlled study, Compound 1 60 mg once daily for 28 days (reducible to 45 mg or 30 mg): TETRAS performance subscale part 4 upper limb tremor score and tremor amplitude
Type: in vivo, human
Conditions: for % CFB in Tremor Amplitude: calculated from TETRAS part 4 ratings
Description: 4) Upper limb tremor: Tremor is assessed during three maneuvers: forward horizontal reach posture, lateral “wing beating” posture and finger-nose-finger testing. Each upper limb is assessed and scored individually. The forward horizontal reach posture is held for 5 seconds. The lateral wing beating posture is held for 20 seconds. The finger-nose-finger movement is executed three times. Amplitude assessment should be estimated using the maximally displaced point of the hand at the point of greatest displacement along any single plane. For example, the amplitude of a pure supination-pronation tremor, pivoting around the wrist would be assessed at either the thumb or fifth digit.
For all three hand tremor ratings: 0=no tremor. 1=tremor is barely visible. 1.5=tremor is visible, but less than 1 cm. 2=tremor is 1-<3 cm amplitude. 2.5=tremor is 3-<5 cm amplitude. 3=tremor is 5-<10 cm amplitude. 3.5=tremor is 10-<20 cm amplitude. 4=tremor is >20 cm amplitude.
As used herein, “The Essential Tremor Rating Assessment Scale (TETRAS) performance subscale part 4 upper limb tremor total score” refers to the “upper limb tremor” under metric or characteristic 4 of the TETRAS performance subscale set forth above. Each of the three tasks are performed on each limb to give a total of 6 tasks, wherein each task is scored 0, 1, 1.5, 2, 2.5, 3, 3.5, or 4, and each score is added to give a total score no greater than 24.
[formula] • wherein Tf is a final tremor amplitude; • Ti is an initial tremor amplitude; • Rf is a final tremor rating; • Ri is an initial tremor rating; • α is 0.05; and • N=6, for 6 tasks in TETRAS performance subscale part 4 upper limb tremor total score.
Participants were 18 to 80 years of age, inclusive, diagnosed of ET of at least 3 years duration with scores of at least 1.5 for each of the six items that comprised the combined total upper limb TETRAS (total performance subscale part 4) with the total score for the dominant upper limb (the sum of the 3 items for either the right or left upper limb, whichever is dominant) being at least 5.5, at both Screening and predose on Day 1.
Groups received either Compound 1 as orally administered tablet(s) (each tablet providing 15 mg of Compound 1) or matching placebo at 1:1 ratio. Tablets were formulated as immediate release, white to off-white, round, film-coated tablets containing 15 mg of Compound 1, filler, disintegrant, lubricant, and glidant, wherein the tablets were formed using direct compression and coated with Opadry® II white as the film coating.
Participants were randomized to receive Compound 1 60 mg or placebo once daily in the morning on a 1:1 basis. If participants reported a TEAE considered by investigator to be related to Compound 1 and not tolerable, investigator might reduce the dose of Compound 1 from 60 mg in 15 mg decrements (i.e., 60 mg, to 45 mg, to 30 mg), as medically appropriate. If intolerable TEAEs persist at the 30 mg dose, Compound 1 was permanently stopped.
This study included a Screening Period of up to 28 days, a 29-day treatment period consisting of 28 days of dosing with the end of treatment visit intended to be on Day 29 at trough, and a 14-day follow-up period relative to final dose. Study patients were not taking other medications for essential tremor during the 28-day treatment period.
The model included the change from baseline at each visit as the dependent variable, treatment, baseline TETRAS performance subscale part 4 upper limb tremor score, assessment timepoint, and timepoint-by-treatment as explanatory variables. All explanatory variables were treated as a fixed effect. The main comparison was (difference in least mean square [LSMEAN]) between Compound 1 and placebo at the 29-day timepoint.
Model-based point estimates (i.e., LSMEAN, 95% confidence intervals, and p-values) were reported where applicable. An unstructured covariance structure was used to model the within-subject errors. […]

[1] = Baseline TETRAS Upper Limb Part 4 < 12, Day 29
[2] = Baseline TETRAS Upper Limb Part 4 ≥ 12, Day 29
[3] = Baseline part 4 upper limb total score ≥ 12, Day 8
[4] = Baseline part 4 upper limb total score ≥ 12, Day 15, 5 hr postdose
[5] = Baseline part 4 upper limb total score ≥ 12, Day 15, 8 hr postdose
[6] = Baseline part 4 upper limb total score ≥ 12, Day 15, predose
[7] = Baseline part 4 upper limb total score ≥ 12, Day 22
[8] = Baseline part 4 upper limb total score ≥ 12, Day 42
[9] = Full Analysis Set, Day 15, 5 hr postdose
[10] = Full Analysis Set, Day 15, 8 hr postdose
[11] = Full Analysis Set, Day 15, predose
[12] = Per-Protocol Set, Day 15, 5 hr postdose
[13] = Per-Protocol Set, Day 15, 8 hr postdose
[14] = Per-Protocol Set, Day 15, predose

COC[C@@]1(O)CC[C@H]2[C@@H](CC[C@@H]3[C@@H]2CC[C@]2(C)[C@@H](C(=O)Cn4nnc(C)n4)CC[C@@H]32)C1 [Compound 1]
LSMean (SE) CFB in TETRAS performance subscale part 4 upper limb tremor total score [1]: −1.06
LSMean Difference (CI) vs placebo in CFB in TETRAS performance subscale part 4 upper limb tremor total score [1]: 0.45
Mean (SD) % CFB in TETRAS performance subscale part 4 upper limb tremor total score [1]: −7.76%
% CFB in Tremor Amplitude [1]: −18.40%
Frequency of % CFB in tremor amplitude category 15-<30%, number of participants [2]: 6
Frequency of % CFB in tremor amplitude category 15-<30%, percent of participants [2]: (28.6)
Frequency of % CFB in tremor amplitude category 30-<50%, number of participants [2]: 2
Frequency of % CFB in tremor amplitude category 30-<50%, percent of participants [2]: (9.5)
Frequency of % CFB in tremor amplitude category 50-<75%, number of participants [2]: 2
Frequency of % CFB in tremor amplitude category 50-<75%, percent of participants [2]: (9.5)
Frequency of % CFB in tremor amplitude category <15%, number of participants [2]: 11
Frequency of % CFB in tremor amplitude category <15%, percent of participants [2]: (52.4)
Frequency of % CFB in tremor amplitude category >75%, number of participants [2]: 0
Mean (SD) % CFB in TETRAS performance subscale part 4 upper limb tremor total score [2]: −20.47%
% CFB in Tremor Amplitude [2]: −41.00%
LSMean difference vs placebo in change from baseline in TETRAS performance subscale part 4 upper limb tremor total score [3]: −1.33
Model-based LSMean (SE) change from baseline in TETRAS performance subscale part 4 upper limb tremor total score [3]: −1.99 (0.340)
LSMean difference vs placebo in change from baseline in TETRAS performance subscale part 4 upper limb tremor total score [4]: −1.60
Model-based LSMean (SE) change from baseline in TETRAS performance subscale part 4 upper limb tremor total score [4]: −3.12 (0.449)
LSMean difference vs placebo in change from baseline in TETRAS performance subscale part 4 upper limb tremor total score [5]: −1.38
Model-based LSMean (SE) change from baseline in TETRAS performance subscale part 4 upper limb tremor total score [5]: −2.84 (0.445)
LSMean difference vs placebo in change from baseline in TETRAS performance subscale part 4 upper limb tremor total score [6]: −1.37
Model-based LSMean (SE) change from baseline in TETRAS performance subscale part 4 upper limb tremor total score [6]: −2.15 (0.371)
LSMean difference vs placebo in change from baseline in TETRAS performance subscale part 4 upper limb tremor total score [7]: −1.48
Model-based LSMean (SE) change from baseline in TETRAS performance subscale part 4 upper limb tremor total score [7]: −2.56 (0.383)
LSMean difference vs placebo in change from baseline in TETRAS performance subscale part 4 upper limb tremor total score (Baseline part 4 upper limb total score ≥ 12, Day 29): −1.70
LSMean difference vs placebo in change from baseline in TETRAS performance subscale part 4 upper limb tremor total score [8]: 0.22
Model-based LSMean (SE) change from baseline in TETRAS performance subscale part 4 upper limb tremor total score [8]: −1.59 (0.475)
Percent reduction from baseline in tremor amplitude (Full Analysis Set): 36
LSMean difference vs placebo in change from baseline in TETRAS performance subscale part 4 upper limb tremor total score (Full Analysis Set, Day 8): −0.81
Model-based LSMean (SE) change from baseline in TETRAS performance subscale part 4 upper limb tremor total score (Full Analysis Set, Day 8): −1.67 (0.287)
LSMean difference vs placebo in change from baseline in TETRAS performance subscale part 4 upper limb tremor total score [9]: −0.40
Model-based LSMean (SE) change from baseline in TETRAS performance subscale part 4 upper limb tremor total score [9]: −2.64 (0.452)
LSMean difference vs placebo in change from baseline in TETRAS performance subscale part 4 upper limb tremor total score [10]: −0.27
Model-based LSMean (SE) change from baseline in TETRAS performance subscale part 4 upper limb tremor total score [10]: −2.36 (0.441)
LSMean difference vs placebo in change from baseline in TETRAS performance subscale part 4 upper limb tremor total score [11]: −0.48
Model-based LSMean (SE) change from baseline in TETRAS performance subscale part 4 upper limb tremor total score [11]: −1.78 (0.344)
LSMean difference vs placebo in change from baseline in TETRAS performance subscale part 4 upper limb tremor total score (Full Analysis Set, Day 22): −0.77
Model-based LSMean (SE) change from baseline in TETRAS performance subscale part 4 upper limb tremor total score (Full Analysis Set, Day 22): −2.10 (0.360)
Frequency of % CFB in tremor amplitude category 15-<30%, number of participants (Full Analysis Set, Day 29): 5
Frequency of % CFB in tremor amplitude category 15-<30%, percent of participants (Full Analysis Set, Day 29): (23.8)
Frequency of % CFB in tremor amplitude category 30-<50%, number of participants (Full Analysis Set, Day 29): 6
Frequency of % CFB in tremor amplitude category 30-<50%, percent of participants (Full Analysis Set, Day 29): (28.6)
Frequency of % CFB in tremor amplitude category 50-<75%, number of participants (Full Analysis Set, Day 29): 3
Frequency of % CFB in tremor amplitude category 50-<75%, percent of participants (Full Analysis Set, Day 29): (14.3)
Frequency of % CFB in tremor amplitude category <15%, number of participants (Full Analysis Set, Day 29): 5
Frequency of % CFB in tremor amplitude category <15%, percent of participants (Full Analysis Set, Day 29): (23.8)
Frequency of % CFB in tremor amplitude category >75%, number of participants (Full Analysis Set, Day 29): 2
Frequency of % CFB in tremor amplitude category >75%, percent of participants (Full Analysis Set, Day 29): (9.5)
LSMean difference vs placebo in change from baseline in TETRAS performance subscale part 4 upper limb tremor total score (Full Analysis Set, Day 29): −1.07 (−2.14, −0.00)
Mean (SD) % CFB in TETRAS performance subscale part 4 upper limb tremor total score (Full Analysis Set, Day 29): −18.05%
Model-based LSMean (SE) change from baseline in TETRAS performance subscale part 4 upper limb tremor total score (Full Analysis Set, Day 29): −2.31 (0.401)
% CFB in Tremor Amplitude (Full Analysis Set, Day 29): −35.80%
LSMean difference vs placebo in change from baseline in TETRAS performance subscale part 4 upper limb tremor total score (Full Analysis Set, Day 29, listed as Cmpd 1): −1.07
LSMean difference vs placebo in change from baseline in TETRAS performance subscale part 4 upper limb tremor total score (Full Analysis Set, Day 42): 0.62
Model-based LSMean (SE) change from baseline in TETRAS performance subscale part 4 upper limb tremor total score (Full Analysis Set, Day 42): −1.23 (0.407)
LSMean difference vs placebo in change from baseline in TETRAS performance subscale part 4 upper limb tremor total score (Per-Protocol Set, Day 8): −0.97
Model-based LSMean (SE) change from baseline in TETRAS performance subscale part 4 upper limb tremor total score (Per-Protocol Set, Day 8): −1.78 (0.319)
LSMean difference vs placebo in change from baseline in TETRAS performance subscale part 4 upper limb tremor total score [12]: −0.71
Model-based LSMean (SE) change from baseline in TETRAS performance subscale part 4 upper limb tremor total score [12]: −2.83 (0.500)
LSMean difference vs placebo in change from baseline in TETRAS performance subscale part 4 upper limb tremor total score [13]: −0.70
Model-based LSMean (SE) change from baseline in TETRAS performance subscale part 4 upper limb tremor total score [13]: −2.66 (0.500)
LSMean difference vs placebo in change from baseline in TETRAS performance subscale part 4 upper limb tremor total score [14]: −0.83
Model-based LSMean (SE) change from baseline in TETRAS performance subscale part 4 upper limb tremor total score [14]: −1.94 (0.367)
LSMean difference vs placebo in change from baseline in TETRAS performance subscale part 4 upper limb tremor total score (Per-Protocol Set, Day 22): −1.15
Model-based LSMean (SE) change from baseline in TETRAS performance subscale part 4 upper limb tremor total score (Per-Protocol Set, Day 22): −2.38 (0.408)
LSMean difference vs placebo in change from baseline in TETRAS performance subscale part 4 upper limb tremor total score (Per-Protocol Set, Day 29): −1.37
Model-based LSMean (SE) change from baseline in TETRAS performance subscale part 4 upper limb tremor total score (Per-Protocol Set, Day 29): −2.50 (0.452)
LSMean difference vs placebo in change from baseline in TETRAS performance subscale part 4 upper limb tremor total score (Per-Protocol Set, Day 42): 0.36
Model-based LSMean (SE) change from baseline in TETRAS performance subscale part 4 upper limb tremor total score (Per-Protocol Set, Day 42): −1.48 (0.474)
Percent reduction from baseline in tremor amplitude (subjects with baseline TETRAS performance subscale part 4 upper limb tremor total score ≥12): 41%
